Laboratory results published in patent US20240277810A1, “INTERFERONS AND NUCLEAR EXPORT INHIBITORS FOR USE IN METHODS OF TREATING CANCER” (St. Jude Children's Research Hospital, Inc., priority 2021, published 2024).
“Also recorded” adds a separate entry of the source.

Tests used:
[1] = test system: bone marrow-derived macrophages (BMDMs); experiment: Cell death in BMDMs quantified by propidium iodide staining (real-time imaging); type: cell-based, mouse; conditions: for cell death compared with wild-type cells: Adar1−/− BMDMs; for cell death (PI staining): wild-type BMDMs, 24 hours, 5 μM KPT-330 or 5 ng/ml leptomycin B, with or without 50 ng/mL IFN-β or IFN-γ
Method: (§1) Cell Culture. Primary mouse bone marrow-derived macrophages (BMDMs) were generated from the bone marrow of wild-type and the indicated mutant mice. Cells were grown for 5-6 days in Iscove's Modified Dulbecco's Media (IMDM, Thermo Fisher Scientific) supplemented with 1% non-essential amino acids (Thermo Fisher Scientific), 10% fetal bovine serum (FBS, Biowest), 30% L929-conditioned media, and 1% penicillin and streptomycin (Thermo Fisher Scientific). BMDMs were then seeded into antibiotic-free media at a concentration of 1×10^6 cells into 12-well plates and incubated overnight.
(§2) Cell Stimulation. BMDMs were treated with 5 μM of KPT-330 (Selleckchem) or 5 ng/ml of leptomycin B (Sigma) in the presence and absence of 50 ng/mL of IFN-γ (Peprotech) or 50 ng/mL of IFN-β (PBL Assay) for 12 or 24 hours, as indicated.
Real-time Imaging for Cell Death. The kinetics of cell death were determined using the INCUCYTE® S3 (Essen BioScience) live-cell analysis system. BMDMs (5×10^5 cells/well) were seeded in 24-well tissue culture plates. Cells were treated with the indicated stimuli and stained with propidium iodide (PI; Life Technologies) following the manufacturer's protocol. The plate was scanned, and fluorescent and phase-contrast images (4 image fields/well) were acquired in real-time every 1 hour from 0 to 24 hours post-treatment. PI-positive dead cells are marked with a red mask for visualization. The image analysis, masking, and quantification of dead cells were done using the software package supplied with the INCUCYTE® imager.

BMDMs = experiment: Immunoblot analysis of pyroptosis, apoptosis and necroptosis (PANoptosis) molecules in BMDMs; type: cell-based, mouse; conditions: for cleavage of caspase-1 and activation of GSDME, caspase-8, -3, -7 and MLKL: Adar1−/− BMDMs, NEI alone
Method: as §1, §2
Immunoblot Analysis. Cell lysates and culture supernatants were combined in caspase lysis buffer (containing 1× protease inhibitors (Roche), 1× phosphatase inhibitors (Roche), 10% NP-40, and 25 mM DTT) and 4× sample loading buffer (containing SDS and 2-mercaptoethanol) for immunoblot analysis of caspases. For immunoblot analysis of signaling components, supernatants were removed, and cells were washed once with Dulbecco's phosphate-buffered saline (DPBS, Thermo Fisher Scientific), followed by lysis in radioimmunoprecipitation assay (RIPA) buffer and sample loading buffer. Proteins were separated by electrophoresis through 8-12% polyacrylamide gels. Following electrophoretic transfer of proteins onto polyvinylidene fluoride (PVDF) membranes (Millipore), nonspecific binding was blocked by incubation with 5% skim milk, then membranes were incubated with primary antibodies against: caspase-3 (Cell Signaling Technology (CST), 1:1000), cleaved caspase-3 (CST, 1:1000), caspase-7 (CST, 1:1000), cleaved caspase-7 (CST, 1:1000), caspase-8 (AdipoGen, 1:1000), cleaved caspase-8 CST, 1:1000), caspase-11 (Novus Biologicals, 1:1000), caspase-1 (AdipoGen, 1:1000), GAPDH (CST, 1:1000), ZBP1 (AdipoGen, 1:1000), pMLKL (CST, 1:1000), tMLKL (Abgent, 1:1000), ADAR1 (Santa Cruz Biotechnology, 1:500), tRIPK1 (CST, 1:1000), GSDMD (Abcam, 1:1000), GSDME (Abcam, 1:1000), RIPK3 (CST, 1:1000), pSTAT1 (CST, 1:1000), tSTAT (CST, 1:1000), pIRF3 (CST, 1:1000), HA (Millipore, 1:1000), β-actin (Proteintech, 1:1000). Membranes were then washed and incubated with the appropriate horseradish peroxidase (HRP)-conjugated secondary antibodies (Jackson ImmunoResearch Laboratories; anti-rabbit, 1:5000; anti-mouse 1:5000; and anti-rat, 1:5000). Proteins were visualized using Immobilon Forte Western HRP Substrate (Millipore).

endogenous dsRNA = experiment: dsRNA by J2 antibody dot-blot analysis and immunofluorescence in BMDMs; type: cell-based, mouse; conditions: for amount of dsRNA: Adar1−/− BMDMs; for amount of dsRNA compared with media-treated cells: wild-type BMDMs
Method: Dot Blot Analysis. For dsRNA analysis, total RNA was isolated from the cells. Equal volumes (2 μl containing 1 μg of RNA) of the RNA were dotted on HYBONDO N+ membrane (GE Healthcare), dried and auto crosslinked in a UV Stratalinker 2400 (Stratagene) two times. The membrane was then blocked in 5% milk in TBST for 1 hour and probed with J2 antibody (1:1000, Scicons) at 4° C. overnight. On the next day, the membrane was washed with TBST 3 times and probed with secondary goat-anti-mouse HRP antibody in 5% milk at room temperature for 1 hour. The total […] was detected using methylene blue.
Immunofluorescence Staining. BMDMs were washed with phosphate-buffered saline (PBS) and fixed in 4% paraformaldehyde for 15 minutes at room temperature, followed by permeabilization for 10 minutes in 0.5% TRITON® X-100 (2-[4-(2,4,4-trimethylpentan-2-yl)phenoxy]ethanol). Cells were blocked in 5% normal goat serum (Life Technologies) for 1 hour at room temperature. Samples were incubated with anti-ZBP1 antibody (1:250 dilution, Adipogen) or anti-J2 antibody (1:100, Millipore) overnight at 4° C. Cells were then washed three times with PBS and incubated with ALEXA FLUOR® 647 fluorescent dye-conjugated antibody against mouse immunoglobulin G (1:250, Invitrogen) and counterstained with DAPI (4′,6-diamidino-2-phenylindol, Life Technologies) for 1 hour at room temperature. Cells were washed three times with PBS and imaged using a Leica SP8 confocal microscope.

[2] = test system: endogenous retroelements (EREs); experiment: RT-PCR expression of endogenous retroelements (EREs) in BMDMs; type: cell-based, mouse; conditions: wild-type BMDMs, NEI alone
Method: RT-PCR Analysis. Total RNA was extracted using TRIZOL® (Thermo Fisher Scientific) and converted into cDNA by using the High-Capacity cDNA Reverse Transcription Kit (Applied Biosystems). Real-time quantitative PCR was performed on an Applied Biosystems 7500 real-time PCR instrument with 2×SYBR™ Green (Applied Biosystems). For ERE expression analysis, 5 μg of total RNA extracted from the cells was dissolved in 46 μl of water and mixed with 3.5 μl NaCl (5 M stock). Then, 0.5 μl RNase A (10 mg/ml stock, Thermo Fisher Scientific) or water (as mock) was added to a total volume of 50 μl and mixed, followed by incubation at room temperature for 10 minutes. Then 1 ml acid-guanidinium-phenol based reagent sold under the tradename TRIZOL® was directly added to the mixture to terminate digestion, and the RNA was extracted. The RNA transcripts of selected endogenous retroelements (EREs) were measured by RT-PCR with GAPDH as an internal control. The ratios of (ERE/GAPDH)RNAase-A/(ERE/GAPDH)mock were calculated as fold enrichment.

ZBP1 = experiment: Co-immunoprecipitation of ZBP1 with ADAR1 and RIPK3 in BMDMs; type: cell-based, mouse; conditions: wild-type BMDMs, 12 hours
Method: Co-Immunoprecipitation Assay. BMDMs (10×10^6 cells) were seeded into 10-cm dishes and treated with IFN-β or KPT-330 or combination of IFN-β and KPT-330 for 12 hours. Then, the cells were lysed in a buffer containing 20 mM Tris-HCl (pH 7.4), 100 mM NaCl, 30 mM KCl, and 0.1% NP-40. After centrifugation at 16,000 g for 10 minutes, the lysates were incubated with anti-ZBP1 antibody (AdipoGen) with protein A/G PLUS-Agarose (Santa Cruz Biotechnology) for overnight incubation at 4° C. After washing with the above buffer, the immunoprecipitated proteins were harvested by boiling in 1×SDS loading buffer at 100° C. for 5 minutes.

B16-F10 melanoma cells = experiment: B16-F10 melanoma model in mice; type: in vivo, mouse; conditions: wild-type mice; KPT-330 15 mg/kg oral, IFN-γ 10 μg or IFN-α/IFN-β 1 μg i.p., days 8, 10 and 13 after implantation
Method: Melanoma Model. The mouse melanoma cell line B16-F10 (ATCCR CRL-6322™) was cultured in a humidified, 5% CO2 incubator at 37° C., and grown in Dulbecco's Modified Eagle Medium (DMEM) with 10% FBS and 100 U/mL penicillin/streptomycin. Male and female 6-12-week-old mice were shaved on their lower back and engrafted with B16-F10 melanoma cells by subcutaneously injecting 1×10^6 cells in 200 μL PBS. Tumors were measured with digital calipers, and tumor volume was calculated using the formula: volume=(length×width^2)×½. For treatment with IFN-γ (Peprotech), each mouse was injected interperitoneally with 10 μg of IFN-γ in 100 μl of saline. For treatment with IFN-α or IFN-β, each mouse was injected interperitoneally with 1 μg of IFN-α or IFN-β. For treatment with KPT-330 (Selleckchem), each mouse was orally administered 300 μl of KPT-330 (15 mg/kg) suspended in 0.6% polyoxyalkylene ether sold under the tradename PLURONIC® (Gibco) and 0.6% polyvinylpyrrolidone. The treatment was given on days 8, 10 and 13 after tumor implantation.

Molecule	cell death compared with wild-type cells [1]	cell death (PI staining) [1]	cleavage of caspase-1 and activation of GSDME, caspase-8, -3, -7 and MLKL (BMDMs)	apoptosis: cleavage of caspase-8, -3 and -7 (BMDMs; wild-type BMDMs)	cleavage of GSDME (pyroptosis) (BMDMs; wild-type BMDMs)	phosphorylation of MLKL (necroptosis) (BMDMs; wild-type BMDMs)	amount of dsRNA (endogenous dsRNA)	amount of dsRNA compared with media-treated cells (endogenous dsRNA)	expression of EREs (Mus-D, Line1, ERV-L) [2]	interaction of ZBP1 with ADAR1 (ZBP1)	interaction of ZBP1 with RIPK3 (ZBP1)	melanoma tumor growth / regression (B16-F10 melanoma cells)	expression of ZBP1 / ADAR1 (BMDMs; wild-type BMDMs)
CCC(=C/[C@H](C)C/C=C/C(C)=C/[C@@H](C)C(=O)[C@@H](C)[C@H](O)[C@@H](C)C/C(C)=C/C(=O)O)/C=C/[C@@H]1OC(=O)C=C[C@@H]1C [LMB, Leptomycin B]	increased cell death	low level of cell death	increased cleavage of caspase-1 and activation	induced apoptosis	displayed cleavage of GSDME	low level of phosphorylation of MLKL	An increase in the amount of dsRNA	slightly increased the amounts of dsRNA	slightly upregulated	–	–	–	–
O=C(/C=C\n1cnc(-c2cc(C(F)(F)F)cc(C(F)(F)F)c2)n1)NNc1cnccn1 [KPT-330, selinexor]	increased cell death	low level of cell death	increased cleavage of caspase-1 and activation	induced apoptosis	displayed cleavage of GSDME	low level of phosphorylation of MLKL	An increase in the amount of dsRNA	slightly increased the amounts of dsRNA	slightly upregulated	some interaction	some interaction	reduced melanoma growth	–
IFN-β: type I interferon (PBL Assay), 50 ng/mL in cells, 1 μg per mouse (protein, listed as Homo sapiens) MTNKCLLQIALLLCFSTTALSMSYNLLGFLQRSSNFQCQKLLWQLNGRLEYCLKDRMNFDIPEEIKQLQQFQKEDAALTIYEMLQNIFAIFRQDSSSTGWNETIVENLLANVYHQINHLKTVLEEKLEKEDFTRGKLMSSLHLKRYYGRILHYLKAKEYSHCAWTIVRVEILRNFYFINRLTGYLRN	–	–	–	–	–	–	–	–	–	robust interaction	–	–	induced ZBP1 expression; also recorded: upregulated
